In brackets after ≈: the same amount, converted by molar mass.
How the values were obtained:
Type in all cases: functional
Staphylococcus aureus [1] = assay: Antimicrobial activity against methicillin-resistant Staphylococcus aureus clinical isolate after 18 to 22 hrs by broth microdilution method
Staphylococcus aureus [2] = assay: Antimicrobial activity against methicillin-susceptible Staphylococcus aureus clinical isolate after 18 to 22 hrs by broth microdilution method
[3] = test system: Staphylococcus epidermidis; assay: Antimicrobial activity against methicillin-resistant Staphylococcus epidermidis clinical isolate after 18 to 22 hrs by broth microdilution method
[4] = test system: Staphylococcus epidermidis; assay: Antimicrobial activity against methicillin-susceptible Staphylococcus epidermidis clinical isolate after 18 to 22 hrs by broth microdilution method
[5] = test system: Staphylococcus haemolyticus; assay: Antimicrobial activity against Staphylococcus haemolyticus clinical isolate after 18 to 22 hrs by broth microdilution method
Enterococcus faecalis [6] = assay: Antimicrobial activity against Enterococcus faecalis clinical isolate after 18 to 22 hrs by broth microdilution method
Enterococcus faecium [7] = assay: Antimicrobial activity against Enterococcus faecium clinical isolate after 18 to 22 hrs by broth microdilution method
Enterococcus faecalis [8] = assay: Antimicrobial activity against vancomycin-resistant Enterococcus faecalis clinical isolate after 18 to 22 hrs by broth microdilution method
Enterococcus faecium [9] = assay: Antimicrobial activity against vancomycin-resistant Enterococcus faecium clinical isolate after 18 to 22 hrs by broth microdilution method
Enterococcus avium = assay: Antimicrobial activity against Enterococcus avium clinical isolate after 18 to 22 hrs by broth microdilution method
Streptococcus pneumoniae [10] = assay: Antimicrobial activity against penicillin-susceptible Streptococcus pneumoniae clinical isolate after 18 to 22 hrs by broth microdilution method
Streptococcus pneumoniae [11] = assay: Antimicrobial activity against penicillin-intermediate Streptococcus pneumoniae clinical isolate after 18 to 22 hrs by broth microdilution method
Streptococcus pneumoniae [12] = assay: Antimicrobial activity against penicillin-resistant Streptococcus pneumoniae clinical isolate after 18 to 22 hrs by broth microdilution method
Streptococcus pyogenes = assay: Antimicrobial activity against Streptococcus pyogenes clinical isolate after 18 to 22 hrs by broth microdilution method
[13] = test system: Enterococcus casseliflavus; assay: Antimicrobial activity against Enterococcus casseliflavus clinical isolate after 18 to 22 hrs by broth microdilution method
Enterococcus durans = assay: Antimicrobial activity against Enterococcus durans clinical isolate after 18 to 22 hrs by broth microdilution method
Enterococcus gallinarum = assay: Antimicrobial activity against Enterococcus gallinarum clinical isolate after 18 to 22 hrs by broth microdilution method
Enterococcus hirae = assay: Antimicrobial activity against Enterococcus hirae clinical isolate after 18 to 22 hrs by broth microdilution method
Streptococcus agalactiae = assay: Antimicrobial activity against Streptococcus agalactiae clinical isolate after 18 to 22 hrs by broth microdilution method

CC(=O)NC[C@H]1CN(c2ccc(N3CCOCC3)c(F)c2)C(=O)O1 [LINEZOLID]
MIC50 (Staphylococcus aureus [1]): 2 µg/mL (≈ 5.93 µM)
MIC90 (Staphylococcus aureus [1]): 4 µg/mL (≈ 11.9 µM)
MIC50 (Staphylococcus aureus [2]): 4 µg/mL (≈ 11.9 µM)
MIC90 (Staphylococcus aureus [2]): 4 µg/mL (≈ 11.9 µM)
MIC [3]: 1 µg/mL (≈ 2.96 µM)
MIC50 [3]: 1 µg/mL (≈ 2.96 µM)
MIC90 [3]: 2 µg/mL (≈ 5.93 µM)
MIC [4]: 1 µg/mL (≈ 2.96 µM)
MIC50 [4]: 1 µg/mL (≈ 2.96 µM)
MIC90 [4]: 2 µg/mL (≈ 5.93 µM)
MIC [5]: 1 µg/mL (≈ 2.96 µM)
MIC50 [5]: 1 µg/mL (≈ 2.96 µM)
MIC90 [5]: 2 µg/mL (≈ 5.93 µM)
MIC50 (Enterococcus faecalis [6]): 2 µg/mL (≈ 5.93 µM)
MIC90 (Enterococcus faecalis [6]): 2 µg/mL (≈ 5.93 µM)
MIC50 (Enterococcus faecium [7]): 2 µg/mL (≈ 5.93 µM)
MIC90 (Enterococcus faecium [7]): 2 µg/mL (≈ 5.93 µM)
MIC50 (Enterococcus faecalis [8]): 2 µg/mL (≈ 5.93 µM)
MIC90 (Enterococcus faecalis [8]): 2 µg/mL (≈ 5.93 µM)
MIC50 (Enterococcus faecium [9]): 2 µg/mL (≈ 5.93 µM)
MIC90 (Enterococcus faecium [9]): 2 µg/mL (≈ 5.93 µM)
MIC50 (Enterococcus avium): 2 µg/mL (≈ 5.93 µM)
MIC90 (Enterococcus avium): 2 µg/mL (≈ 5.93 µM)
MIC50 (Streptococcus pneumoniae [10]): 0.5 µg/mL (≈ 1.48 µM)
MIC90 (Streptococcus pneumoniae [10]): 1 µg/mL (≈ 2.96 µM)
MIC50 (Streptococcus pneumoniae [11]): 0.5 µg/mL (≈ 1.48 µM)
MIC90 (Streptococcus pneumoniae [11]): 1 µg/mL (≈ 2.96 µM)
MIC50 (Streptococcus pneumoniae [12]): 1 µg/mL (≈ 2.96 µM)
MIC90 (Streptococcus pneumoniae [12]): 1 µg/mL (≈ 2.96 µM)
MIC50 (Streptococcus pyogenes): 1 µg/mL (≈ 2.96 µM)
MIC90 (Streptococcus pyogenes): 1 µg/mL (≈ 2.96 µM)
MIC50 [13]: 2 µg/mL (≈ 5.93 µM)
MIC90 [13]: 2 µg/mL (≈ 5.93 µM)
MIC50 (Enterococcus durans): 2 µg/mL (≈ 5.93 µM)
MIC90 (Enterococcus durans): 2 µg/mL (≈ 5.93 µM)
MIC50 (Enterococcus gallinarum): 2 µg/mL (≈ 5.93 µM)
MIC90 (Enterococcus gallinarum): 2 µg/mL (≈ 5.93 µM)
MIC50 (Enterococcus hirae): 2 µg/mL (≈ 5.93 µM)
MIC90 (Enterococcus hirae): 2 µg/mL (≈ 5.93 µM)
MIC50 (Streptococcus agalactiae): 1 µg/mL (≈ 2.96 µM)
MIC90 (Streptococcus agalactiae): 2 µg/mL (≈ 5.93 µM)

CN[C@H](CC(C)C)C(=O)N[C@H]1C(=O)N[C@@H](CC(N)=O)C(=O)N[C@H]2C(=O)N[C@H]3C(=O)N[C@H](C(=O)N[C@H](C(=O)O)c4cc(O)cc(O)c4-c4cc3ccc4O)[C@H](O)c3ccc(c(Cl)c3)Oc3cc2cc(c3O[C@@H]2O[C@H](CO)[C@@H](O)[C@H](O)[C@H]2O[C@H]2C[C@](C)(N)[C@H](O)[C@H](C)O2)Oc2ccc(cc2Cl)[C@H]1O [VANCOMYCIN]
MIC50 (Staphylococcus aureus [1]): 1 µg/mL (≈ 0.69 µM)
MIC90 (Staphylococcus aureus [1]): 1 µg/mL (≈ 0.69 µM)
MIC50 (Staphylococcus aureus [2]): 0.5 µg/mL (≈ 0.345 µM)
MIC90 (Staphylococcus aureus [2]): 1 µg/mL (≈ 0.69 µM)
MIC50 [3]: 2 µg/mL (≈ 1.38 µM)
MIC90 [3]: 2 µg/mL (≈ 1.38 µM)
MIC50 [4]: 1 µg/mL (≈ 0.69 µM)
MIC90 [4]: 1 µg/mL (≈ 0.69 µM)
MIC50 [5]: 1 µg/mL (≈ 0.69 µM)
MIC90 [5]: 1 µg/mL (≈ 0.69 µM)
MIC50 (Enterococcus faecalis [6]): 1 µg/mL (≈ 0.69 µM)
MIC90 (Enterococcus faecalis [6]): 2 µg/mL (≈ 1.38 µM)
MIC50 (Enterococcus faecium [7]): 0.5 µg/mL (≈ 0.345 µM)
MIC90 (Enterococcus faecium [7]): 1 µg/mL (≈ 0.69 µM)
MIC50 (Enterococcus faecalis [8]): > 32 µg/mL
MIC90 (Enterococcus faecalis [8]): > 32 µg/mL
MIC (Enterococcus faecium [9]): > 32 µg/mL
MIC50 (Enterococcus faecium [9]): > 32 µg/mL
MIC90 (Enterococcus faecium [9]): > 32 µg/mL
MIC (Enterococcus avium): 0.25 µg/mL (≈ 0.173 µM)
MIC50 (Enterococcus avium): 0.25 µg/mL (≈ 0.173 µM)
MIC90 (Enterococcus avium): 0.5 µg/mL (≈ 0.345 µM)
MIC50 (Streptococcus pneumoniae [10]): 0.12 µg/mL (≈ 0.0828 µM)
MIC90 (Streptococcus pneumoniae [10]): 0.25 µg/mL (≈ 0.173 µM)
MIC50 (Streptococcus pneumoniae [11]): 0.25 µg/mL (≈ 0.173 µM)
MIC90 (Streptococcus pneumoniae [11]): 0.25 µg/mL (≈ 0.173 µM)
MIC50 (Streptococcus pneumoniae [12]): 0.25 µg/mL (≈ 0.173 µM)
MIC90 (Streptococcus pneumoniae [12]): 0.25 µg/mL (≈ 0.173 µM)
MIC50 (Streptococcus pyogenes): 0.25 µg/mL (≈ 0.173 µM)
MIC90 (Streptococcus pyogenes): 0.25 µg/mL (≈ 0.173 µM)
MIC50 [13]: 0.5 µg/mL (≈ 0.345 µM)
MIC90 [13]: 4 µg/mL (≈ 2.76 µM)
MIC50 (Enterococcus durans): 0.5 µg/mL (≈ 0.345 µM)
MIC90 (Enterococcus durans): 4 µg/mL (≈ 2.76 µM)
MIC50 (Enterococcus gallinarum): 0.5 µg/mL (≈ 0.345 µM)
MIC90 (Enterococcus gallinarum): 4 µg/mL (≈ 2.76 µM)
MIC50 (Enterococcus hirae): 0.5 µg/mL (≈ 0.345 µM)
MIC90 (Enterococcus hirae): 4 µg/mL (≈ 2.76 µM)
MIC (Streptococcus agalactiae): 0.25 µg/mL (≈ 0.173 µM)
MIC50 (Streptococcus agalactiae): 0.25 µg/mL (≈ 0.173 µM)
MIC90 (Streptococcus agalactiae): 0.5 µg/mL (≈ 0.345 µM)
